Measurements as given in US6174858A, “Conjugates useful in the treatment of prostate cancer” (Merck & Co., Inc., priority 1998, dated 2001).
Where two headings read alike, the source gives them in different places.

Assays:
[1] = system: Colo320DM cells; assay: In vitro cytotoxicity, Alamar Blue assay, Colo320DM control cell line (does not express free PSA); assay type: cell-based; conditions: 72 HRS
Description: (§1) In vitro Assay of Cytotoxicity of Peptidyl Derivatives of Vinca Drugs
(§2) The cytotoxicities of the cleaveable oligopeptide-vinca drug conjugates, prepared as described in Example 3, against a line of cells which is known to be killed by unmodified vinca drug was assessed with an Alamar Blue assay. Specifically, cell cultures of LNCap prostate tumor cells, Colo32ODM cells (designated C320) or T47D cells in 96 well plates was diluted with medium containing various concentrations of a given conjugate (final plate well volume of 200 μl). […] The cells were incubated for 3 days at 37° C., 20 μl of Alamar Blue is added to the assay well. The cells were further incubated and the assay plates were read on a EL-310 ELISA reader at the dual wavelengths of 570 and 600 nm at 4 and 7 hours after addition of Alamar Blue. Relative percentage viability at the various concentration of conjugate tested was then calculated versus control (no conjugate) cultures and an EC50 was determined. Unless otherwise indicated, the acetate salt of the conjugate was tested.

[2] = target: T1, free PSA (York PSA) (Homo sapiens, UniProt P07288); assay: Recognition of oligopeptide-vinca drug conjugates by free PSA (time to 50% cleavage, HPLC); assay type: biochemical; conditions: for Time to 50% Substrate Cleavage by York PSA: conjugate to PSA molar ratio 100 to 1, pH 7.4
T1 construct: purchased York ('York PSA')
Description: The reaction was quenched after various reaction times by the addition of trifluoroacetic acid (TFA) to a final 1% (volume/volume). Alternatively the reaction is quenched with 10 mM ZnCl2. The quenched reaction was analyzed by HPLC on a reversed-phase C18 column using an aqueous 0.1%TFA/acetonitrile gradient. The amount of time (in minutes) required for 50% cleavage of the noted oligopeptide-cytotoxic agent conjugates with enzymatically active free PSA were then calculated.

[3] = system: LNCaP prostate tumor cells; assay: In vitro cytotoxicity, Alamar Blue assay, LNCaP cell kill; assay type: cell-based; conditions: 72 HRS
Description: as §1
as §2, with “Specifically,” for “The cytotoxicities of the cleaveable oligopeptide-vinca drug conjugates, prepared as described in Example 3, against a line of cells which is known to be killed by unmodified vinca drug was assessed with an Alamar Blue assay. Specifically,”

[4] = second part of Table 2, read-out: Colo320DM EC 50
[5] = second part of Table 2, read-out: LNCaP Cell Kill in 72 HRS. {48 HRS} EC 50

T1 sequence (P07288 25-261): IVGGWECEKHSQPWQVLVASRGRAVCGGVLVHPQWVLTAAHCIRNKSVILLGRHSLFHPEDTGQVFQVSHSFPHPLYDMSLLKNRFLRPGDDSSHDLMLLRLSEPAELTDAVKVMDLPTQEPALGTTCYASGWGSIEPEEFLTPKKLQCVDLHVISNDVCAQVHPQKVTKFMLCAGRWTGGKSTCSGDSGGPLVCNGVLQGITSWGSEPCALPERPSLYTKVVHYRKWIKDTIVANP

Substance	EC50 [1, 4] [µM]	Substrate cleavage by York PSA, 10 X ENZ o/n ([2]; 10 X ENZ, o/n) [%]	EC50 [3, 5] [µM]	Time to 50% Substrate Cleavage by York PSA [2] [min]	EC50 ([1]; read-out: Colo320DM EC 50) [µM]	EC50 ([3]; read-out: LNCaP Cell Kill in 72 HRS. {48 HRS} EC 50) [µM]
4-O-[Ac-4-trans-L-HypSSChg(dQ)SSP]-dAc-VIN: peptide-vinca drug conjugate, SEQ ID NO 114 (XSSXXSSP; N-acetyl; D-Gln; desacetylvinblastine conjugate)	43.7	0	12.2			
4-O-[Ac-4-trans-L-HypSSChgQSS-Pip]-dAc-VIN: peptide-vinca drug conjugate, SEQ ID NO 124 (XSSXQSSX; N-acetyl; desacetylvinblastine conjugate)	60		7.5	13		
4-O-[Ac--SChgQSS-Sar]-dAc-VIN: peptide-vinca drug conjugate, SEQ ID NO 118 (XXQSSG; N-acetyl; desacetylvinblastine conjugate)	3		0.8	39		
Ac-4-trans-L-HypSSChgQS-(4-O-Ala)-(dAc)-VIN: peptide-vinca drug conjugate, SEQ ID NO 103 (XSSXQSA; N-acetyl; desacetylvinblastine conjugate)	32.5		12.5	23		
Ac-AbuSSChgQ-SS-(4-O-P)-dAc-VIN: peptide-vinca drug conjugate, SEQ ID NO 109 in Table 1, 108 in Table 2 (XSSXQSSP; N-acetyl; desacetylvinblastine conjugate)	28.4		12.8	7		
des-Acetylvinblastine-4-O-(N-Acetyl-4-trans-L-Hyp-Ser-Ser Chg-Gln-Ser-Ser-Pro) ester acetate (XSSXQSSP; N-acetyl; desacetylvinblastine ester; acetate salt)				17	12	3
